Experimental data published in patent publication US12616698B2, “Methods for reducing liver fat and for treating fatty liver disorders” (Corcept Therapeutics Incorporated, priority 2021, dated 2026).

System: patients presumed to have NASH
Assay: Phase 2a study: NASH biomarkers (pro-C3, ELF score and its components)
Type: in vivo, human
Details: for Enhanced Liver Fibrosis (ELF) Score, Change from Baseline mean / Enhanced Liver Fibrosis (ELF) Score, Value mean: unitless
Description: Measures of the effectiveness of miricorilant versus placebo in reducing liver fat were assessed by magnetic resonance imaging (MRI). The change from baseline MRI measurements relative to MRI measurements taken following a course of daily miricorilant or placebo administration were assessed by magnetic resonance imaging-proton density fat fraction (MRI-PDFF). Additionally, effects of miricorilant may be assessed by measuring one or more of the following, either by comparing change from baseline after one or more days of miricorilant administration, or by comparing measurements in patients administered miricorilant versus patients administered placebo: change in liver fat assessed by MRI-PDFF; change in AST, ALT, and gamma-glutamyl transferase (GGT); change in propeptide of type III collagen (pro-C3); change in enhanced liver fibrosis (ELF) score and its components (hyaluronic acid, tissue inhibitor of metalloproteinases-1 [TIMP-1], type III procollagen [PIIINP]); change in ACTH, serum cortisol, and serum aldosterone (pharmacodynamic assessments); change in Homeostatic Model Assessment of Insulin Resistance (HOMA-IR); change in absolute body weight; and other measurements. […] For patients with diabetes, change in HbA1c and change in fasting blood glucose may be measured to assess the effects of miricorilant. Change in blood pressure may be measured in patients with high blood pressure to assess the effects of miricorilant. Pharmacokinetic (PK) parameters were estimated from steady state plasma concentrations of miricorilant.
NASH biomarkers include AST, ALT, GGT, pro-C3, ELF score and its components (hyaluronic acid, TIMP-1, PIIINP). Blood for measuring levels of AST, ALT, and GGT (as part of the chemistry panel) will be collected. Small fragments of collagen, called propeptides, are released during fibrosis. Pro-C3 is the propeptide of type III collagen and detection of pro-C3 is anticipated to reflect the formation of new fibrotic tissue in the liver (Vilar-Gomez and Chalasani 2018). Blood samples for measuring pro-C3 were collected. […] Each of these markers is measured by an immunoassay and an ELF score is generated, from which a level of fibrosis severity can be determined.
(Units are nanograms per milliliter (ng/mL) except for the enhanced liver fibrosis score (ELF), which is unitless.)

With `O=c1[nH]c(=O)c(Cc2cccc(C(F)(F)F)c2)c([C@H]2CC[C@H](c3ccccc3)CC2)[nH]1` [miricorilant, (E)-6-(4-Phenylcyclohexyl)-5-(3-trifluoromethylbenzyl)-1H-pyrimidine-2,4-dione] the “Hyaluronic Acid, Change from Baseline mean” value (600 mg Miricorilant (N = 5)) was -17.8 ng/mL, the “Hyaluronic Acid, Value mean” value (600 mg Miricorilant (N = 5)) was 70.7 ng/mL and the “Propeptide of Type III Collagen (pro-C3), Change from Baseline mean” value (600 mg Miricorilant (N = 5)) was 0.5 ng/mL. The “Propeptide of Type III Collagen (pro-C3), Value mean” value (600 mg Miricorilant (N = 5)) was 10.7 ng/mL, the “Tissue Inhibitor of Metalloproteinases-1 (TIMP-1), Change from Baseline mean” value (600 mg Miricorilant (N = 5)) was 3.2 ng/mL and the “Tissue Inhibitor of Metalloproteinases-1 (TIMP-1), Value mean” value (600 mg Miricorilant (N = 5)) was 249.5 ng/mL. For the same compound, the “Type III Procollagen (PIIINP), Change from Baseline mean” value (600 mg Miricorilant (N = 5)) was -0.17 ng/mL, the “Type III Procollagen (PIIINP), Value mean” value (600 mg Miricorilant (N = 5)) was 9.3 ng/mL and the “Enhanced Liver Fibrosis (ELF) Score, Change from Baseline mean” value (600 mg Miricorilant (N = 5)) was −0.05. For the same compound, the “Enhanced Liver Fibrosis (ELF) Score, Value mean” value (600 mg Miricorilant (N = 5)) was 9.4, the “Hyaluronic Acid, Change from Baseline mean” value (900 mg Miricorilant (N = 3)) was -50.0 ng/mL and the “Hyaluronic Acid, Value mean” value (900 mg Miricorilant (N = 3)) was 110.9 ng/mL. The “Propeptide of Type III Collagen (pro-C3), Change from Baseline mean” value (900 mg Miricorilant (N = 3)) was -7.9 ng/mL, the “Propeptide of Type III Collagen (pro-C3), Value mean” value (900 mg Miricorilant (N = 3)) was 24.1 ng/mL and the “Tissue Inhibitor of Metalloproteinases-1 (TIMP-1), Change from Baseline mean” value (900 mg Miricorilant (N = 3)) was -79.4 ng/mL. The “Tissue Inhibitor of Metalloproteinases-1 (TIMP-1), Value mean” value (900 mg Miricorilant (N = 3)) was 402.1 ng/mL, the “Type III Procollagen (PIIINP), Change from Baseline mean” value (900 mg Miricorilant (N = 3)) was -5.35 ng/mL and the “Type III Procollagen (PIIINP), Value mean” value (900 mg Miricorilant (N = 3)) was 17.7 ng/mL. The “Enhanced Liver Fibrosis (ELF) Score, Change from Baseline mean” value (900 mg Miricorilant (N = 3)) was −0.90 and the “Enhanced Liver Fibrosis (ELF) Score, Value mean” value (900 mg Miricorilant (N = 3)) was 10.6.
